Data on 4 molecules can be found in ChEMBL document CHEMBL4130363, “Synthesis and pharmacological evaluation of benzamide derivatives as potent and selective sigma-1 protein ligands” (Eur J Med Chem, 2017).

In test [1] the target is D(2) dopamine receptor (Homo sapiens) (UniProt P14416). As to the kind of experiment: Antagonist activity at recombinant human dopamine D2L receptor assessed as inhibition of agonist-induced effect at 10 uM by GTPgamma[35S] binding-based assay. For orientation: GTPγS is a poorly hydrolysed GTP analogue; its binding reports G protein activation.
Chain of D(2) dopamine receptor (Homo sapiens) (P14416 whole entry): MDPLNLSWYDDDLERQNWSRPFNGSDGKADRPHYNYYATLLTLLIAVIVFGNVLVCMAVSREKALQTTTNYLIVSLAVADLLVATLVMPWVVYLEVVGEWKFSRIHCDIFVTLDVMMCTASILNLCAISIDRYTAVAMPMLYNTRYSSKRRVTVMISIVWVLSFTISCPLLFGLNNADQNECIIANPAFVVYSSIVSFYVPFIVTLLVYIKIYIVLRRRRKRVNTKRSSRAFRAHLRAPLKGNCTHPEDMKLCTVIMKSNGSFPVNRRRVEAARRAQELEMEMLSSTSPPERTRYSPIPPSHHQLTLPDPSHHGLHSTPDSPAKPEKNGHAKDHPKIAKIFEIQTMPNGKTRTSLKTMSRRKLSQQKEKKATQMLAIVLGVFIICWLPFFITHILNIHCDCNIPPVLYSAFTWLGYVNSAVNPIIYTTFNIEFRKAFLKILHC
The target of test [2] is 5-hydroxytryptamine receptor 1B (Homo sapiens) (UniProt P28222). As to the kind of experiment: Agonist activity at recombinant human 5-HT1B at 10 uM by GTPgamma[35S] binding-based assay relative to agonist. Type of test: functional.
Chain of 5-hydroxytryptamine receptor 1B (Homo sapiens) (P28222 whole entry): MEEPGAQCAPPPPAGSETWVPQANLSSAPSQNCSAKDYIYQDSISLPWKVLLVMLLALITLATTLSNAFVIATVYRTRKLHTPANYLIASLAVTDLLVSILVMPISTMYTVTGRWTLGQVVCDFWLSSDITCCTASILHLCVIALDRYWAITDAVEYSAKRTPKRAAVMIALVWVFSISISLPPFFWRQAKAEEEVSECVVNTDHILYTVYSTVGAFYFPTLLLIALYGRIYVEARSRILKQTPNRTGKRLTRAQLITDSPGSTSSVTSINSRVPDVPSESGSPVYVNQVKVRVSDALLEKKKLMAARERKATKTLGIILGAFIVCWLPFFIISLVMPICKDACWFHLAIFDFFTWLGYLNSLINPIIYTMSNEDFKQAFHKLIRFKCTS
Test [3] concerns the target Kappa-type opioid receptor (Homo sapiens) (UniProt P41145). As to the kind of experiment: Antagonist activity at human kappa-type opioid receptor assessed as inhibition of agonist-induced effect at 10 uM by GTPgamma[35S] binding-based assay. The class given is functional.
In test [4] the target is Vasopressin V1a receptor (Homo sapiens) (UniProt P37288). As to the kind of experiment: Agonist activity at recombinant human V1A receptor at 10 uM by aequorin reporter based assay relative to agonist. Type of test: functional.
Chain of Vasopressin V1a receptor (Homo sapiens) (P37288 whole entry, looked up): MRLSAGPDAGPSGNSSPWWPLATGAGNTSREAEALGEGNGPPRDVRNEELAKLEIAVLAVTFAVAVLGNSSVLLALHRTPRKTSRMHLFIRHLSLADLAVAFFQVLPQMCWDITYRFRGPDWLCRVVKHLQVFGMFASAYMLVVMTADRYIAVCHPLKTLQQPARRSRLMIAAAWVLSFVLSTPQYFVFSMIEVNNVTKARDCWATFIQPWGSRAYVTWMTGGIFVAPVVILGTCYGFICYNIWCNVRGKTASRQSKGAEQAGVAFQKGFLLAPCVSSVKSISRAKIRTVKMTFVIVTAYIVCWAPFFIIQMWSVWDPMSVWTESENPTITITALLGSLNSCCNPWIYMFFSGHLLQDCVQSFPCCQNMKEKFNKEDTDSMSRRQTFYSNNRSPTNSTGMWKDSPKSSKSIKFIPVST
The target of test [5] is T1, Substance-K receptor (Homo sapiens) (UniProt P21452).
T1 sequence (whole entry): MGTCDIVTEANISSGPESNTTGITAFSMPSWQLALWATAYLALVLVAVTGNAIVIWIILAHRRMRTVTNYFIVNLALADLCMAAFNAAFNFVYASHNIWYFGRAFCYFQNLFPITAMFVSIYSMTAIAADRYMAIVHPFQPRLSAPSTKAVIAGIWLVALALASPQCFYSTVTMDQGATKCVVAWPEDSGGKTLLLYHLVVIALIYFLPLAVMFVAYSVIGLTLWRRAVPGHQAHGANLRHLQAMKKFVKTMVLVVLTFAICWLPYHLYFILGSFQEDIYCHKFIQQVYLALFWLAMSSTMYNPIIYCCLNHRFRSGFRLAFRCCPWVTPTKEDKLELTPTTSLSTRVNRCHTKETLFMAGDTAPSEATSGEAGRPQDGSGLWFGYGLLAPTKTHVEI
As to the kind of experiment: Agonist activity at recombinant human NK2R assessed at 10 uM by aequorin reporter based assay relative to agonist. The class given is functional.

In test [6] the target is T2, Alpha-1A adrenergic receptor (Homo sapiens) (UniProt P35348).
T2 sequence (whole entry): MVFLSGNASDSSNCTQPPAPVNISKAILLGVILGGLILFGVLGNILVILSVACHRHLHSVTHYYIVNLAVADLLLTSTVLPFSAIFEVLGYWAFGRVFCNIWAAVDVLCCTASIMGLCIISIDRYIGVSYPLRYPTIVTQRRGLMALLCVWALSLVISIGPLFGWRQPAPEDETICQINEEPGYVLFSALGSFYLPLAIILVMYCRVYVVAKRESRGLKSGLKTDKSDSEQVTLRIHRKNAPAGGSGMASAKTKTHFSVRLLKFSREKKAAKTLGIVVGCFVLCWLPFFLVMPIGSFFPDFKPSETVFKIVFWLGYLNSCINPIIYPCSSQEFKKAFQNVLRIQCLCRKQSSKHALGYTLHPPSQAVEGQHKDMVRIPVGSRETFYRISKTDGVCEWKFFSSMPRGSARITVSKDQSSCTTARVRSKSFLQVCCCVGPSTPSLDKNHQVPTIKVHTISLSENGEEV
Description: Agonist activity at recombinant human alpha-1a adrenergic receptor […] at 10 uM by aequorin reporter based assay relative to agonist. Type of test: functional. For orientation: cAMP levels reflect the balance of adenylyl cyclase and phosphodiesterase activity.

Test [7] has as its target D(1A) dopamine receptor (Homo sapiens) (UniProt P21728). As to the kind of experiment: Agonist activity at recombinant human dopamine D1 receptor assessed as induction of cAMP levels at 10 uM by HTRF assay relative to agonist. The class given is functional.
The target in test [8] is 5-hydroxytryptamine receptor 2B (Homo sapiens) (UniProt P41595). Description: Agonist activity at recombinant human 5-HT2B at 10 uM by aequorin reporter based assay relative to agonist. Type of test: functional.
Chain of 5-hydroxytryptamine receptor 2B (Homo sapiens) (P41595 whole entry): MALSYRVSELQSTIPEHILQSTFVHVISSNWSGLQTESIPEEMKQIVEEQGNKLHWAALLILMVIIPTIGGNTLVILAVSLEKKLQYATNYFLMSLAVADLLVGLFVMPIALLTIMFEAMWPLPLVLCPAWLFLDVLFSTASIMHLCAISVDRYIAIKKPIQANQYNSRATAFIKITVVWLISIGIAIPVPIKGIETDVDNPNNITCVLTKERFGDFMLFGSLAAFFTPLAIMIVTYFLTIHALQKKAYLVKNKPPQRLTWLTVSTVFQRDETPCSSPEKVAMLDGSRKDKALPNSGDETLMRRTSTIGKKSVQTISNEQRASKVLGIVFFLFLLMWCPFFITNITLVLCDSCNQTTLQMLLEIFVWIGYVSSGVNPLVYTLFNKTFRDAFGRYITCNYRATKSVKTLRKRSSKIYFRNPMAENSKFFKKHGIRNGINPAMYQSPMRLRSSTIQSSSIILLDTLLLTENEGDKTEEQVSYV
The target in test [9] is Beta-1 adrenergic receptor (Homo sapiens) (UniProt P08588). Description: Agonist activity at recombinant human beta-1 adrenergic receptor assessed as induction of cAMP levels at 10 uM by HTRF assay relative to agonist. The class given is functional.
Chain of Beta-1 adrenergic receptor (Homo sapiens) (P08588 whole entry, looked up): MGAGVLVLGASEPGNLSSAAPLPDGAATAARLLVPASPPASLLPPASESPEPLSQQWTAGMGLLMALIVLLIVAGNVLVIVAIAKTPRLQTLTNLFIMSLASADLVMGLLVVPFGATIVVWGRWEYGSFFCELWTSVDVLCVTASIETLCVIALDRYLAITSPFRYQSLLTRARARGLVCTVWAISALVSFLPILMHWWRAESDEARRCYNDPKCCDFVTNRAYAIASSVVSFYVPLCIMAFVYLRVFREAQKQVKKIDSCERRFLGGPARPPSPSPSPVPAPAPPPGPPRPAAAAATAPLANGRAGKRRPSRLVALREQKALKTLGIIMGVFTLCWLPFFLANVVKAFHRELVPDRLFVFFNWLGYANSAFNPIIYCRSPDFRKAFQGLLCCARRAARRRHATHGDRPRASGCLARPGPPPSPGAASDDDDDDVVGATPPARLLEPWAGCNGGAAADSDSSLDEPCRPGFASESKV
The target in test [10] is Beta-2 adrenergic receptor (Homo sapiens) (UniProt P07550). Description: Agonist activity at recombinant human beta-2 adrenergic receptor assessed as induction of cAMP levels at 10 uM by HTRF assay relative to agonist. Type of test: functional.
Chain of Beta-2 adrenergic receptor (Homo sapiens) (P07550 whole entry, looked up): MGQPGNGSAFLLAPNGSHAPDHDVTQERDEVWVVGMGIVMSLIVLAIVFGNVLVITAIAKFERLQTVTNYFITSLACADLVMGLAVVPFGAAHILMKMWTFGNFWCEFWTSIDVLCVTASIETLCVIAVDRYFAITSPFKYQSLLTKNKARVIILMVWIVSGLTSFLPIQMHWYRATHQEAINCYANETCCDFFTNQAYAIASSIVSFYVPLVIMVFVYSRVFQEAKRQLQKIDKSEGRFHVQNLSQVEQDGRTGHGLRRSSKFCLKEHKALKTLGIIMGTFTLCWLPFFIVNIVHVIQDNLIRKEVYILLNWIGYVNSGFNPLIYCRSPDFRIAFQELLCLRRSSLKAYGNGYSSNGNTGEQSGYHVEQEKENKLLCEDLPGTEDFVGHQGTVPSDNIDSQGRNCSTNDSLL
The target in test [11] is Adenosine receptor A2a (Homo sapiens) (UniProt P29274). Description: Agonist activity at recombinant human adenosine A2A receptor assessed as induction of cAMP levels at 10 uM by HTRF assay relative to agonist. Type of test: functional.
Chain of Adenosine receptor A2a (Homo sapiens) (P29274 whole entry): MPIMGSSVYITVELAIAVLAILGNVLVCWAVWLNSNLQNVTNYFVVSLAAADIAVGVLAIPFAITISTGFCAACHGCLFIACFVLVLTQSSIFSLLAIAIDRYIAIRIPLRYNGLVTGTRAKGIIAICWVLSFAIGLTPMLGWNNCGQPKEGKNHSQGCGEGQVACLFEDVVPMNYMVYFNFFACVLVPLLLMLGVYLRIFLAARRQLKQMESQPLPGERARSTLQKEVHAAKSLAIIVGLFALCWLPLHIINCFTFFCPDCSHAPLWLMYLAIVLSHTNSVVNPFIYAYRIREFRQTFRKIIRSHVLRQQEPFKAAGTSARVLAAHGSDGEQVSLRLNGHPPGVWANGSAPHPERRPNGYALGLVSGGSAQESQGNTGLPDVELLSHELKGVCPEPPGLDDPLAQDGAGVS
For test [12], the target named is T3, Muscarinic acetylcholine receptor M1 (Homo sapiens) (UniProt P11229).
T3 sequence (whole entry): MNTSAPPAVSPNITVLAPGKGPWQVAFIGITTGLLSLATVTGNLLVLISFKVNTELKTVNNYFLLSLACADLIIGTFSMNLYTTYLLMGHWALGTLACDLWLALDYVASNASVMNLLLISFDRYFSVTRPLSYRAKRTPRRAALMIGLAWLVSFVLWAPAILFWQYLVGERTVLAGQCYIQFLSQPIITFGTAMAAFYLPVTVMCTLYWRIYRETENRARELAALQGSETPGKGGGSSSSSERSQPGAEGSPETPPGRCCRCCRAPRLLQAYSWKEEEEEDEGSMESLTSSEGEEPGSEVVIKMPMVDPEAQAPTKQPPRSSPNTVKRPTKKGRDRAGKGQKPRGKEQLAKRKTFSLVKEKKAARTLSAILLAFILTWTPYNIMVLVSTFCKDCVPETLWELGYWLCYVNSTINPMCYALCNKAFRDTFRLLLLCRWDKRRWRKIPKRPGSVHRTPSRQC
As to the kind of experiment: Antagonist activity at recombinant human muscarinic M1 receptor assessed as inhibition of agonist-induced effect at 10 uM by aequorin reporter based assay. Type of test: functional.

The target of test [13] is T4, 5-hydroxytryptamine receptor 1A (Homo sapiens) (UniProt P08908).
T4 sequence (whole entry): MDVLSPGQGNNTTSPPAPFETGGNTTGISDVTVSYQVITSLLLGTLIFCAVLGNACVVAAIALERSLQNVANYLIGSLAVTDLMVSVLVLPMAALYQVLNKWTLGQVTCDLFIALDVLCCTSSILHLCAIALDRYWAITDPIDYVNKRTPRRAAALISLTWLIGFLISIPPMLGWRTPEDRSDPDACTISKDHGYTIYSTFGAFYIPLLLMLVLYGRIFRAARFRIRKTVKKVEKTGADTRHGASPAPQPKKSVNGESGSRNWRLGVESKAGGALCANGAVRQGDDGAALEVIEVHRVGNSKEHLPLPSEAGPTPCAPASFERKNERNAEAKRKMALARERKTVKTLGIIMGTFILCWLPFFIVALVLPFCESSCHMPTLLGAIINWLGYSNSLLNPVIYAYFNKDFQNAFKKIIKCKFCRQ
As to the kind of experiment: Antagonist activity at recombinant human 5-HT1A assessed as inhibition of agonist-induced cAMP levels at 10 uM by HTRF assay. The class given is functional.

The target in test [14] is 5-hydroxytryptamine receptor 7 (Homo sapiens) (UniProt P34969). Description: Agonist activity at recombinant human 5-HT7R assessed as induction of cAMP levels at 10 uM by HTRF assay relative to agonist. The class given is functional.
Chain of 5-hydroxytryptamine receptor 7 (Homo sapiens) (P34969 whole entry): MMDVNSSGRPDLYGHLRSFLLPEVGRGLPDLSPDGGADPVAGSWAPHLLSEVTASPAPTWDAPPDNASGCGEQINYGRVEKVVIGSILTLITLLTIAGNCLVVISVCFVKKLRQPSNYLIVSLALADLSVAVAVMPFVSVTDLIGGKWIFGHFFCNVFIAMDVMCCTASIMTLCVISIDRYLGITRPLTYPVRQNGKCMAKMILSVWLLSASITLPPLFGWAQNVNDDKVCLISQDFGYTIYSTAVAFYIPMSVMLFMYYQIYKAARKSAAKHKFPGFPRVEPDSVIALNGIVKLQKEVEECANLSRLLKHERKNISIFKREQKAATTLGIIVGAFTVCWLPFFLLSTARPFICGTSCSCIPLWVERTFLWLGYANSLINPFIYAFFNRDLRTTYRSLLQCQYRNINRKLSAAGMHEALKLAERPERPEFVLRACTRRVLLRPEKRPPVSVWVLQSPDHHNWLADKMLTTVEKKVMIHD
Test [15] deals with 5-hydroxytryptamine receptor 6 (Homo sapiens) (UniProt P50406). As to the kind of experiment: Antagonist activity at recombinant human 5-HT6R assessed as inhibition of agonist-induced cAMP induction at 10 uM by HTRF assay. The class given is functional. A general note: TR-FRET usually uses a lanthanide donor and a delayed reading to cut background.
Chain of 5-hydroxytryptamine receptor 6 (Homo sapiens) (P50406 whole entry): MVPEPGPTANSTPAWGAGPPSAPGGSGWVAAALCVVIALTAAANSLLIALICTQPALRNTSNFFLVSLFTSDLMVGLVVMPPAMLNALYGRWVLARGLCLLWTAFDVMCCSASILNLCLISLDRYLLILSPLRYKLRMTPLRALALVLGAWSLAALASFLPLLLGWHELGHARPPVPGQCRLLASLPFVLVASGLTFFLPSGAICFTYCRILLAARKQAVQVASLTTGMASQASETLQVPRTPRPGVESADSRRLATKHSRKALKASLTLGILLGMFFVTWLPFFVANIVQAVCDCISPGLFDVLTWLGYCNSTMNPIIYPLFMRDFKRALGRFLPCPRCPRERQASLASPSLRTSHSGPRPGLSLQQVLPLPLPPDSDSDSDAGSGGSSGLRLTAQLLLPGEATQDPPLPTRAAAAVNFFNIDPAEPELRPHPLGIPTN

Chain of Kappa-type opioid receptor (Homo sapiens) (P41145 whole entry): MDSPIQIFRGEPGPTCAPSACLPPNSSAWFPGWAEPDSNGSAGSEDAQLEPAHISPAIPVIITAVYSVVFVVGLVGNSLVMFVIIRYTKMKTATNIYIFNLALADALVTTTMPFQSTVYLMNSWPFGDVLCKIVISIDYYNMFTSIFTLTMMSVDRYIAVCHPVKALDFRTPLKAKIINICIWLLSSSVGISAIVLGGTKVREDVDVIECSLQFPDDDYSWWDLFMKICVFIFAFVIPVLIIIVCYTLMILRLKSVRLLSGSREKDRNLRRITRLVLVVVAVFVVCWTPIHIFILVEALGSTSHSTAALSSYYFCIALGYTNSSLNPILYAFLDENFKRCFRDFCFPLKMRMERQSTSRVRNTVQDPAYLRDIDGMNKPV
Chain of D(1A) dopamine receptor (Homo sapiens) (P21728 whole entry): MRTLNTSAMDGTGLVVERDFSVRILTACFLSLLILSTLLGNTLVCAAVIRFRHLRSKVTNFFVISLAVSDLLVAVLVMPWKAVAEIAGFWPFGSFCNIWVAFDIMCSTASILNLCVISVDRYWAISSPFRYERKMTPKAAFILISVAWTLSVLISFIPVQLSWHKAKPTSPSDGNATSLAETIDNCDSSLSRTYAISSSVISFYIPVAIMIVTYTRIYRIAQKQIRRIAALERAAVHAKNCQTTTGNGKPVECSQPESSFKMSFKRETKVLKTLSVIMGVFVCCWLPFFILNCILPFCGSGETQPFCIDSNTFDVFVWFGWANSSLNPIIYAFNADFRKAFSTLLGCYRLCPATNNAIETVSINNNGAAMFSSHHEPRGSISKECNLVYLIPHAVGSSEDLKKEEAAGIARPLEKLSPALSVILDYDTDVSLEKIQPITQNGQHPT

A word on the inhibition: it is the drop in the measured response relative to a control, in per cent. Consider `CN(CCNC(=O)c1ccc(C#N)cc1)Cc1ccccc1`, for which the inhibition in test [1] was 55%; in [3], 9%; in test [12], 6%; in test [13] it was 16%; in [15], -2%. Also, the Activity in [2] was -12%; in test [4], 0%; in test [5], 0%; in [6], 0%; in test [7], 9%; in [8] it was -4%. The Activity in test [9] is -5%; in [10], 0%; in test [11], -8%; in test [14], 2%.
With `CN(CCCNC(=O)c1ccc(Cl)cc1)CCc1ccccc1`, the inhibition in test [1] was 36%; in [3], 26%; in [12], 86%; in test [13], 17%; in [15] it was 3%. The Activity in test [2] was 1%; in [4] it was 0%; in test [5], 0%; in test [6] it was 0%; in test [7], -6%; in [8], 38%. The Activity in [9] is 18%; in test [10], 2%; in test [11] it was -6%; in [14] it was 130%.
For the molecule `CN(CCNC(=O)c1ccc(Cl)cc1)Cc1ccccc1`, the inhibition in [1] is 90%; in test [3], 40%; in test [12], 69%; in test [13], 3%; in test [15], -3%. Further, the Activity is 4% in [2]; 0% in test [4]; 1% in test [5]; 0% in [6]; -4% in [7]; 0% in [8]. In addition, the Activity is 7% in [9], 0% in test [10], -22% in test [11] and 46% in test [14].
With `COc1cccc(C(=O)NCCCN(C)Cc2ccccc2)c1`, the inhibition in [1] was 22%; in [3], 4%; in test [12], 34%; in [13], 18%; in test [15], -1%. Also, the Activity is -12% in [2]; 0% in test [4]; 0% in test [5]; 0% in [6]; 8% in test [7]; -2% in test [8]. The Activity in test [9] is -10%; in test [10], 8%; in test [11], 5%; in test [14] it was -5%.
